SMILES strings stand for the structures.

Assay [1] concerns SDMA signal (PRMT5 inhibition) in HCT116 MTAP-deleted cells. The assay is described as follows: Symmetric di-methyl arginine image-based high content screen assay (SDMA assay), HCT116 MTAP-deleted. The assay is classed as cell-based. Particulars: SDMA assay; for EC50: Homo sapiens, HCT-116, 72 h, 3 days of treatment, cell line not given, taken as HCT116 MTAP-deleted, read-out: EC50 (SDMA assay); for EC50 selectivity (SDMA assay): taken as HCT116 WT versus MTAP-deleted. The method in brief: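 Read-out: per-cell mean SDMA immunofluorescence (Alexa Fluor 488 secondary), cells segmented by DAPI on a high-content imager. Compound exposure in HCT116 MTAP-deleted cells lasted until fixation on Day 3; overnight 4° C primary anti-SDMA antibody staining.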

In assay [2] the test system is HCT116 MTAP-deleted cells. The assay is described as follows: Cell viability assay (CellTiter-Glo, 7 days), HCT116 MTAP-deleted. The note with it: Homo sapiens, HCT-116, 168 h. For orientation: In ATP-based viability assays light output follows the ATP content of the culture.

As for `Cn1ncc2c(N)nc3ccc(C(=O)N(Cc4nc5cc(Cl)ccc5n4C)N4CCCC4=O)cc3c21` [Example 208, 4-Amino-N-[(5-chloro-1-methyl-benzimidazol-2-yl)methyl]-1-methyl-N-(2-oxopyrrolidin-1-yl)pyrazolo[4,3-c]quinoline-8-carboxamide], in assay [1], the 50% effective concentration (EC50) is below 1 nM and the “EC50 selectivity (SDMA assay)” value amounted to 91. This molecule also came in with a CC50 in assay [2] below 100 nM.
As to `CC(=O)N(C)N(Cc1nc2cc(Cl)ccc2n1C)C(=O)c1ccc2nc(N)c3cnn(C)c3c2c1` [Example 209, N′-Acetyl-4-amino-N-[(5-chloro-1-methyl-benzimidazol-2-yl)methyl]-N′,1-dimethyl-pyrazolo[4,3-c]quinoline-8-carbohydrazide], in assay [1], the 50% effective concentration (EC50) is below 1 nM and the “EC50 selectivity (SDMA assay)” value is on record as 228. Further, the CC50 in assay [2] is below 100 nM.
As for `CC(=O)N(C)N(Cc1nc2cc(Cl)ccc2n1C)C(=O)c1cc2c(cc1F)nc(N)c1cnn(C)c12` [Example 210, N′-acetyl-4-amino-N-[(5-chloro-1-methyl-benzimidazol-2-yl)methyl]-7-fluoro-N′,1-dimethyl-pyrazolo[4,3-c]quinoline-8-carbohydrazide], in assay [1], the EC50 was in the range of 1 to 5 nM and the “EC50 selectivity (SDMA assay)” value is recorded as 59. In addition, in assay [2], the CC50 is below 100 nM.
In the same order, the values of `Cn1ncc2c(N)nc3ccc(C(=O)N(Cc4nc5cc(Cl)ccc5n4C)N4CCCCC4=O)cc3c21` [Example 211, 4-amino-N-((5-chloro-1-methyl-1H-benzo[d]imidazol-2-yl)methyl)-1-methyl-N-(2-oxopiperidin-1-yl)-1H-pyrazolo[4,3-c]quinoline-8-carboxamide] are below 1 nM, 142 and below 100 nM.
In the same order, the values of `Cn1ncc2c(N)nc3cc(F)c(C(=O)N(Cc4nc5cc(Cl)ccc5n4C)N4CCCCC4=O)cc3c21` [Example 212, 4-Amino-N-[(5-chloro-1-methyl-benzimidazol-2-yl)methyl]-7-fluoro-1-methyl-N-(2-oxo-1-piperidyl)pyrazolo[4,3-c]quinoline-8-carboxamide] are 1 to 5 nM, 80 and below 100 nM.
For the molecule `CC(=O)N(C)N(Cc1cc2ccccc2s1)C(=O)c1ccc2nc(N)c3cnn(C)c3c2c1` [Example 213, N′-Acetyl-4-amino-N-(benzothiophen-2-ylmethyl)-N′,1-dimethyl-pyrazolo[4,3-c]quinoline-8-carbohydrazide], in assay [1], the concentration giving a half-maximal response (EC50) is below 1 nM and the “EC50 selectivity (SDMA assay)” value is reported as 209. The CC50 in assay [2] was below 100 nM.
With `CC(=O)N(C)N(Cc1nc2ccc(F)cc2s1)C(=O)c1cc2c(cc1F)nc(N)c1cnn(C)c12` [Example 214, N′-acetyl-4-amino-7-fluoro-N-[(6-fluoro-1,3-benzothiazol-2-yl)methyl]-N′,1-dimethyl-pyrazolo[4,3-c]quinoline-8-carbohydrazide], in assay [1], the EC50 was below 1 nM and the “EC50 selectivity (SDMA assay)” value was 74. In addition, the CC50 in assay [2] is below 100 nM.
Taken in the same sequence, the figures for `CC(=O)NN(Cc1nc2cc(C(F)(F)F)ccc2s1)C(=O)c1ccc2nc(N)c3cnn(C)c3c2c1` [Example 215, N′-acetyl-4-amino-1-methyl-N-[[5-(trifluoromethyl)-1,3-benzothiazol-2-yl]methyl]pyrazolo[4,3-c]quinoline-8-carbohydrazide] were below 1 nM, 90 and below 100 nM.
On to `CC(=O)NN(Cc1nc2cc(C(F)(F)F)ccc2s1)C(=O)c1cc2c(cc1F)nc(N)c1cnn(C)c12` [Example 216, N′-acetyl-4-amino-7-fluoro-1-methyl-N-[[5-(trifluoromethyl)-1,3-benzothiazol-2-yl]methyl]pyrazolo[4,3-c]quinoline-8-carbohydrazide], for which, in assay [1], the 50% effective concentration (EC50) is below 1 nM and the “EC50 selectivity (SDMA assay)” value is recorded as 54. This molecule gave a CC50 in assay [2] below 100 nM.
In the same order, the values of `CN(C(=O)c1cocn1)N(Cc1ccc(C(F)(F)F)cc1)C(=O)c1ccc2nc(N)c3cnn(C)c3c2c1` [Example 218, N′-(4-amino-1-methyl-1H-pyrazolo[4,3-c]quinoline-8-carbonyl)-N-methyl-N′-(4-(trifluoromethyl)benzyl)oxazole-4-carbohydrazide] are below 1 nM, 6 and below 100 nM.
In the same order, the values of `CN(C(=O)c1ncco1)N(Cc1ccc(C(F)(F)F)cc1)C(=O)c1ccc2nc(N)c3cnn(C)c3c2c1` [Example 219, N′-(4-amino-1-methyl-1H-pyrazolo[4,3-c]quinoline-8-carbonyl)-N-methyl-N′-(4-(trifluoromethyl)benzyl)oxazole-2-carbohydrazide] are below 1 nM, 9 and below 100 nM.
In the same order, the values of `CC(=O)N(C)N(Cc1ccc(-c2cnc(C(F)(F)F)cc2C)cc1F)C(=O)c1ccc2nc(N)c3cnn(C)c3c2c1` [Example 220, N′-acetyl-4-amino-N-(2-fluoro-4-(4-methyl-6-(trifluoromethyl)pyridin-3-yl)benzyl)-N′,1-dimethyl-1H-pyrazolo[4,3-c]quinoline-8-carbohydrazide] are 1 to 5 nM, 15 and below 100 nM.
On to `CN(C(=O)C1CC1)N(Cc1ccc(Cl)cn1)C(=O)c1ccc2nc(N)c3cnn(C)c3c2c1` [Example 221, 4-amino-N-((5-chloropyridin-2-yl)methyl)-N′-(cyclopropanecarbonyl)-N′,1-dimethyl-1H-pyrazolo[4,3-c]quinoline-8-carbohydrazide], for which, in assay [1], the EC50 lay within 1 to 5 nM and the “EC50 selectivity (SDMA assay)” value is recorded as 218. In addition, the CC50 in assay [2] is below 100 nM.
In the case of `CC(=O)N(C)N(Cc1ccc(-c2cnn(C(F)(F)F)c2)cc1F)C(=O)c1ccc2nc(N)c3cnn(C)c3c2c1` [Example 222, N′-acetyl-4-amino-N-(2-fluoro-4-(1-(trifluoromethyl)-1H-pyrazol-4-yl)benzyl)-N′,1-dimethyl-1H-pyrazolo[4,3-c]quinoline-8-carbohydrazide], in assay [1], the EC50 was below 1 nM and the “EC50 selectivity (SDMA assay)” value turned out to be 123. In addition, the cytotoxic concentration (CC50) in assay [2] is below 100 nM.
As for `CC(=O)N(C)N(Cc1ccc(-c2cn(C(F)(F)F)cn2)cc1F)C(=O)c1ccc2nc(N)c3cnn(C)c3c2c1` [Example 223, N′-acetyl-4-amino-N-(2-fluoro-4-(1-(trifluoromethyl)-1H-imidazol-4-yl)benzyl)-N′,1-dimethyl-1H-pyrazolo[4,3-c]quinoline-8-carbohydrazide], in assay [1], the EC50 lay within 1 to 5 nM and the “EC50 selectivity (SDMA assay)” value was determined as 139. This molecule gave a cytotoxic concentration (CC50) in assay [2] below 100 nM.
For `Cc1scnc1C(=O)N(C)N(Cc1ccc(C(F)(F)F)cn1)C(=O)c1ccc2nc(N)c3cnn(C)c3c2c1` [Example 226, N′-(4-amino-1-methyl-1H-pyrazolo[4,3-c]quinoline-8-carbonyl)-N,5-dimethyl-N′-((5-(trifluoromethyl)pyridin-2-yl)methyl)thiazole-4-carbohydrazide], in assay [1], the EC50 fell in the range of 1 to 5 nM and the “EC50 selectivity (SDMA assay)” value amounted to 86. In assay [2], this molecule had a half-maximal cytotoxic concentration (CC50) below 100 nM.
In the same order, the values of `CC(=O)N(C)N(Cc1ccc(C2CC2)nc1F)C(=O)c1ccc2nc(N)c3cnn(C)c3c2c1` [Example 228, N′-acetyl-4-amino-N-((6-cyclopropyl-2-fluoropyridin-3-yl)methyl)-N′,1-dimethyl-1H-pyrazolo[4,3-c]quinoline-8-carbohydrazide] are 1 to 5 nM, 205 and below 100 nM.
Taken in the same sequence, the figures for `CC(=O)N(C)N(Cc1ccc(-c2ccc(C(F)(F)F)nc2)cc1F)C(=O)c1ccc2nc(N)c3cnn(C)c3c2c1` [Example 229, N′-acetyl-4-amino-N-(2-fluoro-4-(6-(trifluoromethyl)pyridin-3-yl)benzyl)-N′,1-dimethyl-1H-pyrazolo[4,3-c]quinoline-8-carbohydrazide] were 1 to 5 nM, 43 and below 100 nM.
Consider `CN(C(=O)C1CC1)N(Cc1ccc(-c2cnn(C(F)(F)F)c2)cc1F)C(=O)c1ccc2nc(N)c3cnn(C)c3c2c1` [Example 230, 4-amino-N′-(cyclopropanecarbonyl)-N-(2-fluoro-4-(1-(trifluoromethyl)-1H-pyrazol-4-yl)benzyl)-N′,1-dimethyl-1H-pyrazolo[4,3-c]quinoline-8-carbohydrazide], for which, in assay [1], the EC50 is below 1 nM and the “EC50 selectivity (SDMA assay)” value is given as 228. The molecule further returned a half-maximal cytotoxic concentration (CC50) in assay [2] below 100 nM.
For the molecule `CC(=O)N(C)N(Cc1ccc(-c2ccc(C(F)(F)F)cc2)cc1F)C(=O)c1ccc2nc(N)c3cnn(C)c3c2c1` [Example 231, N′-acetyl-4-amino-N-((3-fluoro-4′-(trifluoromethyl)-[1,1′-biphenyl]-4-yl)methyl)-N′,1-dimethyl-1H-pyrazolo[4,3-c]quinoline-8-carbohydrazide], in assay [1], the EC50 lay in the range of 1 to 5 nM and the “EC50 selectivity (SDMA assay)” value turned out to be 18. Moreover, the CC50 in assay [2] is below 100 nM.
With `CC(=O)N(C)N(Cc1ccc(C2CC2)nc1)C(=O)c1ccc2nc(N)c3cnn(C)c3c2c1` [Example 232, N′-acetyl-4-amino-N-((6-cyclopropylpyridin-3-yl)methyl)-N′,1-dimethyl-1H-pyrazolo[4,3-c]quinoline-8-carbohydrazide], in assay [1], the EC50 lay in the range of 1 to 5 nM and the “EC50 selectivity (SDMA assay)” value is 298. The molecule further showed a CC50 in assay [2] below 100 nM.
Turning to `CC(=O)N(C)N(Cc1ccc(-c2cnsc2)cc1F)C(=O)c1ccc2nc(N)c3cnn(C)c3c2c1` [Example 233, N′-acetyl-4-amino-N-(2-fluoro-4-(isothiazol-4-yl)benzyl)-N′,1-dimethyl-1H-pyrazolo[4,3-c]quinoline-8-carbohydrazide], in assay [1], the EC50 is below 1 nM and the “EC50 selectivity (SDMA assay)” value is recorded as 89. This molecule yielded a 50% cytotoxic concentration (CC50) in assay [2] below 100 nM.

The EC50 is the midpoint of the concentration-response curve. One may read the CC50 as the concentration at which the toxic effect on the cells reaches its halfway point.

These data come from patent US20240254118A1, “PRMT5 INHIBITORS AND USES THEREOF” (Gilead Sciences, Inc., priority 2022, published 2024).
